Measurements from patent US7205322B2, “Thiazolidine compounds as calcium sensing receptor modulators” (Bristol-Myers Squibb Company, priority 2003, dated 2007).
Counter-ions that a name gives are not always drawn. Each block holds one molecule with its values, some of them ahead of it.

Experiments:
[1] = intravenous bolus injection; cited from earlier work
[2] = OVX rats; oral administration; in the presence of an anti-resorptive agent (Gowen et al. 2000); cited from earlier work
[3] = postmenopausal women; placebo-controlled trial (Neer et al. 2001); cited from earlier work

melting point: 158 to 163 °C
Molecule: COc1ccc(CC(C)(C)NC[C@H](O)[C@H]2CSCN2Cc2cccc(C#N)c2)cc1 (stereo in doubt) (as salt: hydrochloride) [Example 3, 3-(4-{1-Hydroxy-2-[2-(4-methoxy-phenyl)-1,1-dimethyl-ethylamino]-ethyl}-thiazolidin-3-ylmethyl)-benzonitrile]

melting point: 80 to 85 °C
Molecule: CC(C)(Cc1ccc2ccccc2c1)NC[C@H](O)[C@H]1CSCN1Cc1ccc(SCc2ccco2)c([N+](=O)[O-])c1 (stereo in doubt) [Example 4, 2-(1,1-Dimethyl-2-naphthalen-2-yl-ethylamino)-1-{3-[4-(furan-2-ylmethylsulfanyl)-3-nitro-benzyl]-thiazolidin-4-yl}-ethanol]

Molecule: CC(C)(Cc1ccc2ccccc2c1)NC[C@@H](O)COc1cccc(Cl)c1C#N [NPS-2143]
effect on serum PTH [1]: transient increase in serum PTH
effect on bone mass [2]: increase in bone mass

Molecule: PTH peptide fragment (1–34): PTH peptide fragment (1–34), parathyroid hormone fragment; stimulator of bone formation (SVSEIQLMHNLGKHLNSMERVEWLRKKLQDVHNF; Parathyroid hormone; UniProt P01270 32-65, looked up, fragment)
reduction of the risk of non-traumatic, non-spine fractures [3]: 54%
reduction of the risk of spine fractures [3]: 65%
